Experimental data published in PubChem BioAssay AID256 (DTP/NCI, 2004).
Where “and” joins values, the source holds several entries; their conditions need not be identical. Equal entries are not always repeated. Inconclusive results and toxic doses are left out. How the source made its calls: active means survival T/C of 150% or more; inactive means T/C below 125% in these data.

System: CD2F1 mice, L1210 leukemia ip, survival T/C
Assay: NCI In Vivo Anticancer Drug Screen. Data for tumor model L1210 Leukemia (intraperitoneal) in CD2F1 (CDF1) mice
Settings: higher = longer survival
In short: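 In this screen, transplantable tumors were grown in mice given either the compound or its vehicle. Results were expressed as the treated measurement relative to the control measurement.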

[1] = endpoint: mean survival time, dose: 25.0 mg/kg/injection, schedule: Q01DX009 (ip), vehicle: saline with Tween-80
[2] = endpoint: mean survival time, dose: 50.0 mg/kg/injection, schedule: Q01DX009 (ip), vehicle: saline with Tween-80
[3] = endpoint: mean survival time, dose: 100.0 mg/kg/injection, schedule: Q01DX009 (ip), vehicle: saline with Tween-80
[4] = endpoint: mean survival time, dose: 200.0 mg/kg/injection, schedule: Q01DX009 (ip), vehicle: saline with Tween-80
[5] = endpoint: mean survival time, dose: 400.0 mg/kg/injection, schedule: Q01DX009 (ip), vehicle: saline with Tween-80
[6] = endpoint: mean survival time, dose: 100.0 mg/kg/injection, schedule: Q04DX003 (ip), vehicle: saline with Tween-80
[7] = endpoint: mean survival time, dose: 200.0 mg/kg/injection, schedule: Q04DX003 (ip), vehicle: saline with Tween-80
[8] = endpoint: mean survival time, dose: 100.0 mg/kg/injection, schedule: Q04DX003 (ip), vehicle: Klucel (hydroxypropylcellulose) (HPC)
[9] = endpoint: mean survival time, dose: 200.0 mg/kg/injection, schedule: Q04DX003 (ip), vehicle: Klucel (hydroxypropylcellulose) (HPC)

Measured: T/C

CN(C)c1nc(N(C)C)nc(N(C)C)n1
inactive: endpoint: mean survival time, dose: 12.5 mg/kg/injection, schedule: Q01DX009 (ip), vehicle: saline with Tween-80 93 % of control and 103 % of control | endpoint: mean survival time, dose: 20.0 mg/kg/injection, schedule: Q01DX009 (ip), vehicle: Klucel (hydroxypropylcellulose) (HPC) 106 % of control | [1] 97 % of control and 102 % of control | endpoint: mean survival time, dose: 40.0 mg/kg/injection, schedule: Q01DX009 (ip), vehicle: Klucel (hydroxypropylcellulose) (HPC) 102 % of control | endpoint: mean survival time, dose: 50.0 mg/kg/injection, schedule: Q01DX001 (ip), vehicle: saline with Tween-80 96 % of control | [2] 97 % of control and 100 % of control | endpoint: mean survival time, dose: 80.0 mg/kg/injection, schedule: Q01DX009 (ip), vehicle: Klucel (hydroxypropylcellulose) (HPC) 106 % of control | endpoint: mean survival time, dose: 100.0 mg/kg/injection, schedule: Q01DX001 (ip), vehicle: saline with Tween-80 104 % of control | [3] 96 % of control and 97 % of control | endpoint: mean survival time, dose: 160.0 mg/kg/injection, schedule: Q01DX009 (ip), vehicle: Klucel (hydroxypropylcellulose) (HPC) 100 % of control | endpoint: mean survival time, dose: 200.0 mg/kg/injection, schedule: Q01DX001 (ip), vehicle: saline with Tween-80 97 % of control | [4] 100 % of control and 103 % of control | endpoint: mean survival time, dose: 400.0 mg/kg/injection, schedule: Q01DX001 (ip), vehicle: saline with Tween-80 104 % of control | endpoint: median survival time, dose: 8.0 mg/kg/injection, schedule: Q03HX024 (ip), vehicle: Klucel (hydroxypropylcellulose) (HPC) 97 % of control | endpoint: median survival time, dose: 16.0 mg/kg/injection, schedule: Q03HX008 (ip), vehicle: Klucel (hydroxypropylcellulose) (HPC) 96 % of control | endpoint: median survival time, dose: 16.0 mg/kg/injection, schedule: Q03HX016 (ip), vehicle: Klucel (hydroxypropylcellulose) (HPC) 96 % of control | endpoint: median survival time, dose: 16.0 mg/kg/injection, schedule: Q03HX024 (ip), vehicle: Klucel (hydroxypropylcellulose) (HPC) 104 % of control | endpoint: median survival time, dose: 32.0 mg/kg/injection, schedule: Q01DX009 (ip), vehicle: Klucel (hydroxypropylcellulose) (HPC) 108 % of control | endpoint: median survival time, dose: 32.0 mg/kg/injection, schedule: Q03HX008 (ip), vehicle: Klucel (hydroxypropylcellulose) (HPC) 100 % of control | endpoint: median survival time, dose: 32.0 mg/kg/injection, schedule: Q03HX016 (ip), vehicle: Klucel (hydroxypropylcellulose) (HPC) 100 % of control | endpoint: median survival time, dose: 32.0 mg/kg/injection, schedule: Q03HX024 (ip), vehicle: Klucel (hydroxypropylcellulose) (HPC) 111 % of control | endpoint: median survival time, dose: 64.0 mg/kg/injection, schedule: Q01DX009 (ip), vehicle: Klucel (hydroxypropylcellulose) (HPC) 107 % of control | endpoint: median survival time, dose: 64.0 mg/kg/injection, schedule: Q04DX003 (ip), vehicle: Klucel (hydroxypropylcellulose) (HPC) 98 % of control | endpoint: median survival time, dose: 128.0 mg/kg/injection, schedule: Q01DX001 (ip), vehicle: Klucel (hydroxypropylcellulose) (HPC) 97 % of control | endpoint: median survival time, dose: 128.0 mg/kg/injection, schedule: Q01DX009 (ip), vehicle: Klucel (hydroxypropylcellulose) (HPC) 102 % of control | endpoint: median survival time, dose: 128.0 mg/kg/injection, schedule: Q04DX003 (ip), vehicle: Klucel (hydroxypropylcellulose) (HPC) 109 % of control | endpoint: median survival time, dose: 128.0 mg/kg/injection, schedule: Q08DX002 (ip), vehicle: Klucel (hydroxypropylcellulose) (HPC) 98 % of control | endpoint: median survival time, dose: 256.0 mg/kg/injection, schedule: Q01DX001 (ip), vehicle: Klucel (hydroxypropylcellulose) (HPC) 98 % of control | endpoint: median survival time, dose: 256.0 mg/kg/injection, schedule: Q04DX003 (ip), vehicle: Klucel (hydroxypropylcellulose) (HPC) 114 % of control | endpoint: median survival time, dose: 256.0 mg/kg/injection, schedule: Q08DX002 (ip), vehicle: Klucel (hydroxypropylcellulose) (HPC) 98 % of control

Cc1cc2nc(CC(O)(C(F)(F)F)C(F)(F)F)oc2cc1C
inactive: [3] 91 % of control | [4] 92 % of control | [5] 96 % of control

[Cl][Pt+2][Cl].[NH-]N1CCN([NH-])CC1
inactive: endpoint: mean survival time, dose: 12.5 mg/kg/injection, schedule: Q04DX003 (ip), vehicle: saline with Tween-80 105 % of control | endpoint: mean survival time, dose: 25.0 mg/kg/injection, schedule: Q04DX003 (ip), vehicle: saline with Tween-80 90 % of control | endpoint: mean survival time, dose: 50.0 mg/kg/injection, schedule: Q04DX003 (ip), vehicle: saline with Tween-80 98 % of control | [6] 94 % of control | [7] 102 % of control

CC(=O)CC(=O)c1ccccc1.CC(=O)CC(=O)c1ccccc1.CC(=O)CC(=O)c1ccccc1.[Cr]
inactive: endpoint: median survival time, dose: 50.0 mg/kg/injection, schedule: Q04DX002 (ip), vehicle: saline with Tween-80 88 % of control | endpoint: median survival time, dose: 100.0 mg/kg/injection, schedule: Q04DX002 (ip), vehicle: saline with Tween-80 88 % of control | endpoint: median survival time, dose: 200.0 mg/kg/injection, schedule: Q04DX002 (ip), vehicle: saline with Tween-80 88 % of control | endpoint: median survival time, dose: 400.0 mg/kg/injection, schedule: Q04DX002 (ip), vehicle: saline with Tween-80 88 % of control

OCC1OC(c2cccs2)C(O)C1O (stereo unspecified)
inactive: endpoint: median survival time, dose: 12.5 mg/kg/injection, schedule: Q01DX005 (ip), vehicle: saline 102 % of control | endpoint: median survival time, dose: 25.0 mg/kg/injection, schedule: Q01DX005 (ip), vehicle: saline 98 % of control | endpoint: median survival time, dose: 50.0 mg/kg/injection, schedule: Q01DX005 (ip), vehicle: saline 92 % of control | endpoint: median survival time, dose: 100.0 mg/kg/injection, schedule: Q01DX005 (ip), vehicle: saline 98 % of control | endpoint: median survival time, dose: 200.0 mg/kg/injection, schedule: Q01DX005 (ip), vehicle: saline 106 % of control

CN(C)CCCC1c2ccccc2Oc2ccc(C(F)(F)F)cc21 (stereo unspecified)
inactive: endpoint: mean survival time, dose: 1.56 mg/kg/injection, schedule: Q01DX009 (ip), vehicle: saline 96 % of control | endpoint: mean survival time, dose: 3.12 mg/kg/injection, schedule: Q01DX009 (ip), vehicle: saline 100 % of control | endpoint: mean survival time, dose: 6.25 mg/kg/injection, schedule: Q01DX009 (ip), vehicle: saline 94 % of control | endpoint: mean survival time, dose: 12.5 mg/kg/injection, schedule: Q01DX009 (ip), vehicle: saline 100 % of control | endpoint: mean survival time, dose: 25.0 mg/kg/injection, schedule: Q01DX009 (ip), vehicle: saline 103 % of control

CCCCCCCCCCCCNCCC#N
inactive: [1] 100 % of control | [2] 101 % of control | [3] 95 % of control | [6] 93 % of control | [7] 87 % of control

CCCCCCCC[n+]1ccc(C#N)cc1
inactive: endpoint: mean survival time, dose: 18.8 mg/kg/injection, schedule: Q01DX009 (ip), vehicle: saline 98 % of control | endpoint: mean survival time, dose: 37.5 mg/kg/injection, schedule: Q01DX009 (ip), vehicle: saline 93 % of control

CC1=CC=CNC1(N)Br (stereo unspecified)
inactive: endpoint: mean survival time, dose: 100.0 mg/kg/injection, schedule: Q01DX001 (ip), vehicle: saline 100 % of control | endpoint: mean survival time, dose: 200.0 mg/kg/injection, schedule: Q01DX001 (ip), vehicle: saline 104 % of control | endpoint: mean survival time, dose: 400.0 mg/kg/injection, schedule: Q01DX001 (ip), vehicle: saline 100 % of control

F[Si](c1ccc(Br)cc1)(c1ccc(Br)cc1)c1ccc(Br)cc1
inactive: [2] 102 % of control | [3] 94 % of control | [6] 95 % of control | [7] 93 % of control

NCCN.[Ni+2].[O-]c1ccccc1[O-].[O-]c1ccccc1[O-]
inactive: endpoint: mean survival time, dose: 0.78 mg/kg/injection, schedule: Q01DX009 (ip), vehicle: other 96 % of control | endpoint: mean survival time, dose: 1.56 mg/kg/injection, schedule: Q01DX009 (ip), vehicle: other 93 % of control | endpoint: mean survival time, dose: 3.13 mg/kg/injection, schedule: Q01DX009 (ip), vehicle: other 108 % of control | endpoint: mean survival time, dose: 6.25 mg/kg/injection, schedule: Q01DX009 (ip), vehicle: other 112 % of control | endpoint: mean survival time, dose: 12.5 mg/kg/injection, schedule: Q01DX009 (ip), vehicle: other 98 % of control

CC12CCC(=O)C=C1CCC1C2C(=O)CC2(C)C1CCC2(O)C(=O)Cn1cc(F)c(=O)[nH]c1=O (stereo unspecified)
inactive: endpoint: mean survival time, dose: 12.5 mg/kg/injection, schedule: Q04DX003 (ip), vehicle: Klucel (hydroxypropylcellulose) (HPC) 100 % of control | endpoint: mean survival time, dose: 25.0 mg/kg/injection, schedule: Q04DX003 (ip), vehicle: Klucel (hydroxypropylcellulose) (HPC) 103 % of control | endpoint: mean survival time, dose: 50.0 mg/kg/injection, schedule: Q04DX003 (ip), vehicle: Klucel (hydroxypropylcellulose) (HPC) 100 % of control | [8] 96 % of control | [9] 94 % of control

O=C(O/N=C(\CN1CCOCC1)c1ccc(Cl)cc1)c1ccccc1
inactive: [8] 86 % of control | [9] 90 % of control | endpoint: mean survival time, dose: 400.0 mg/kg/injection, schedule: Q04DX003 (ip), vehicle: Klucel (hydroxypropylcellulose) (HPC) 94 % of control

C=CCC(Cl)(C(=O)OC)C(=O)OC
inactive: [3] 108 % of control | [4] 108 % of control | [5] 106 % of control

O=C(Nc1ccc(Br)cc1)c1ccccc1
inactive: [3] 107 % of control | [6] 102 % of control | [4] 94 % of control | [7] 102 % of control | [5] 91 % of control | endpoint: mean survival time, dose: 400.0 mg/kg/injection, schedule: Q04DX003 (ip), vehicle: saline with Tween-80 100 % of control

COC(=O)c1ccccc1N=NNc1ccc(C(F)(F)F)c([N+](=O)[O-])c1
inactive: [3] 103 % of control | [4] 95 % of control | [5] 95 % of control
